# Experiments:
# Type in all cases: functional, cell-based
# MGC-803 = test: Antiproliferative activity against human MGC-803 cells incubated for 48 hrs by MTT assay; conditions: MGC-803, 48 h
# T-24 = test: Antiproliferative activity against human T24 cells incubated for 48 hrs by MTT assay; conditions: T-24, 48 h
# HepG2 = test: Antiproliferative activity against human HepG2 cells incubated for 48 hrs by MTT assay; conditions: HepG2, 48 h
# SK-OV-3 = test: Antiproliferative activity against human SK-OV-3 cells incubated for 48 hrs by MTT assay; conditions: SK-OV-3, 48 h
SMILES,IC50 (MGC-803) [µM],IC50 (T-24) [µM],IC50 (HepG2) [µM],IC50 (SK-OV-3) [µM]
CC(C)(C)OC(=O)N1CCN(c2ccc3c4c(cccc24)C(=O)N(c2nc4ccccc4[nH]2)C3=O)CC1,> 50,> 50,> 50,> 50
O=C(c1ccccc1)N1CCN(c2ccc3c4c(cccc24)C(=O)N(CCc2ccc4c(c2)OCO4)C3=O)CC1,21.6,24.4,31.5,35.2
O=C1c2cccc3c(N4CCN(C(=S)SCc5ccccc5)CC4)ccc(c23)C(=O)N1Cc1ccccc1,38.9,31.7,40.6,30
O=C1c2cccc3c(N4CCN(C(=S)SCc5ccccc5)CC4)ccc(c23)C(=O)N1CCc1ccc2c(c1)OCO2,12.1,14.6,11.8,10.5
O=C(c1ccccc1)N1CCN(c2ccc3c4c(cccc24)C(=O)N(Nc2ccccn2)C3=O)CC1,35.3,32.4,38.5,29.5
CCCCN1C(=O)c2cccc3c(N4CCN(C(=S)SCc5ccccc5)CC4)ccc(c23)C1=O,26.1,22.6,29.7,25.3
CNCCCN1C(=O)c2cccc3c(N4CCN(C(=O)c5ccccc5)CC4)ccc(c23)C1=O,8.09,6.25,4.41,6.06
CC(C)(C)OC(=O)N1CCN(c2ccc3c4c(cccc24)C(=O)N(Nc2nc4ccccc4s2)C3=O)CC1,19.5,20.3,22.4,23.5
O=C1c2cccc3c(N4CCN(C(=S)SCc5ccccc5)CC4)ccc(c23)C(=O)N1Nc1ccccc1,19.4,22.4,28.4,30.8
CN(C)CCN1C(=O)c2cccc3c(N4CCN(C(=O)OC(C)(C)C)CC4)ccc(c23)C1=O,10.9,6.91,11.4,10.2
CC(C)(C)OC(=O)N1CCN(c2ccc3c4c(cccc24)C(=O)N(Cc2ccc(Cl)cc2)C3=O)CC1,25.3,21.3,23.2,22.6
CCCCN1C(=O)c2cccc3c(N4CCN(C(=O)c5ccccc5)CC4)ccc(c23)C1=O,11.2,10.4,14.3,15.4
O=C1c2cccc3c(N4CCN(C(=S)SCc5ccccc5)CC4)ccc(c23)C(=O)N1Cc1ccc(Cl)cc1,20.5,21.1,25.3,28.8
O=C(c1ccccc1)N1CCN(c2ccc3c4c(cccc24)C(=O)N(Nc2ccccc2)C3=O)CC1,26.4,19.3,21.5,23.3
O=C1c2cccc3c(N4CCN(C(=S)SCc5ccccc5)CC4)ccc(c23)C(=O)N1CCO,18.5,16.4,16.8,14.3
O=C(c1ccccc1)N1CCN(c2ccc3c4c(cccc24)C(=O)N(Nc2nc4ccccc4s2)C3=O)CC1,27.5,24.1,22.4,19.4
O=c1[nH]cc(F)c(=O)[nH]1 [FLUOROURACIL],,40.1,25.5,

# From ChEMBL document CHEMBL5532646, “Discovery of 4-(N-dithiobenzyl piperazine)-1,8-naphthalimide as a potent multi-target antitumor agent with good efficacy, limited toxicity, and low resistance” (Eur J Med Chem, 2024)
